Test results published in patent US10183944B2 (Asana Biosciences, LLC, priority 2011, dated 2019).
Counter-ions that a name gives are not always drawn.

These compounds were tested against Syk (356-635 amino acids) catalytic domain (Homo sapiens (Human), UniProt P43405) (assay: Inhibition of enzymatic Syk kinase activity (radiometric)). Settings: read-out: IC50 Syk.
Format: biochemical
From the text: The objective of this assay was to examine by radiometric method the ability of compounds to inhibit Syk kinase enzyme. Syk is capable of phosphorylating substrates such as VAV, LAT, SLP-76, which in turn activate MAPK, PLCγ signaling pathways. […] This in vitro assay tests the ability of syk to phosphorylate a substrate peptide in the presence of ATP. By using a radio-labeled form of ATP, it is possible to measure the amount of phosphorylation of the substrate. The enzyme transfers a radio-labeled phosphate group from γ32 P labeled ATP to pG4T. Briefly the enzyme was incubated with substrate, radio-labeled & cold ATP and substrate in buffer with or without compounds. At the end of the reaction, the reaction mixture was transferred on to a Multiscreen filter plate and unreacted γ^32P ATP was washed off. The filter plate was dried and the radioactivity was measured on a scintillation counter to estimate the incorporated radioactivity on the substrate. The percent inhibition of activity of the enzyme was calculated by comparing counts in the presence and absence of compounds. […] 2.5 μL of 10% DMSO or compound in 10% DMSO was added to the wells in a 96 well V-bottom plate. Optimized concentration of in-house Syk enzyme (different batches of Syk (356-635) kinase domain) were used at optimized concentrations) ranging from 0.035 ng to 7.5 ng/reaction diluted in assay buffer was added to a total volume of 12.5 μL). Compound and protein were incubated for 30 minutes at room temperature on a plate shaker. Ten μL of a substrate mix containing 100 μM ATP (0.25 μL), γ-P^32-ATP (0.1 μL; 10 μCi/μL), pG4T (0.25 μL; 10 mg/mL) and 1× assay buffer (9.4 μL) was added to all the wells. Samples were incubated at 30° C. for 10 minutes after mixing. The reaction was stopped by the addition of 8N HCl (13 μL) containing 100 mM ATP. Thirty μL of sample was transferred to the center of a 2×2 cm^2 Whatman® P81 chromatography paper. After allowing the sample to dry for one minute, the assay squares were washed 3 times for 5 minutes each in ortho-phosphoric acid (0.5%) and once in acetone. Assay squares were dried for 15 minutes in a 30° C. oven and transferred to 96 well optiplate. Microscint-O® reagent (100 μL, Perkin Elmer) was added to each well, the plate was sealed with Topseal®-A microplates and incubated for 10 minutes at room temperature at very low speed on rocker and the plate was read in the Topcount® NXL instrument. The following calculations were made: Fold induction=radioactivity counts (uncorrected values) in positive control/substrate control.

SMILES	IC50
O=C(c1ccc(Nc2nc(-c3ccccc3)nc3cn[nH]c(=O)c23)cc1)N1CCOCC1 [Example 9, 4-(4-(morpholine-4-carbonyl)phenylamino)-2-phenylpyrimido[4,5-d]pyridazin-5(6H)-one]	> 100 nM
NCC(=O)N1CCN(c2ccc(Nc3nc(-c4ccccc4)nc4cn[nH]c(=O)c34)cc2)CC1 [Example 14, 4-(4-(4-(2-aminoacetyl)piperazin-1-yl)phenylamino)-2-phenylpyrimido[4,5-d]pyridazin-5(6H)-one]	< 10 nM
CN(C)CCN(C)C(=O)c1ccc(Nc2nc(-c3ccccc3)nc3cn[nH]c(=O)c23)cc1 [Example 15, N-(2-(dimethylamino)ethyl)-N-methyl-4-(5-oxo-2-phenyl-5,6-dihydropyrimido[4,5-d]pyridazin-4-ylamino)benzamide]	> 100 nM
O=C1CC2(CCN(c3ccc(Nc4nc(-c5ccccc5)nc5cn[nH]c(=O)c45)cc3)CC2)N1 [Example 16, 4-(4-(2-oxo-1,7-diazaspiro[3.5]nonan-7-yl)phenylamino)-2-phenylpyrimido[4,5-d]pyridazin-5(6H)-one]	> 100 nM
O=c1[nH]ncc2nc(-c3ccccc3)nc(Nc3ccc(N4CCC5(CC4)COC5)cc3)c12 [Example 17, 4-(4-(2-oxa-7-azaspiro[3.5]nonan-7-yl)phenylamino)-2-phenylpyrimido[4,5-d]pyridazin-5(6H)-one]	> 100 nM
CCOC(=O)C1CC12CCN(c1ccc(Nc3nc(-c4ccccc4)nc4cn[nH]c(=O)c34)cc1)CC2 (stereo not shown) [Example 20, ethyl 6-(4-(5-oxo-2-phenyl-5,6-dihydropyrimido[4,5-d]pyridazin-4-ylamino)phenyl)-6-azaspiro[2.5]octane-1-carboxylate]	> 100 nM
O=C(O)C1CC12CCN(Cc1ccc(Nc3nc(-c4ccccc4)nc4cn[nH]c(=O)c34)cc1)CC2 (stereo not shown) [Example 21, 6-(4-(5-oxo-2-phenyl-5,6-dihydropyrimido[4,5-d]pyridazin-4-ylamino)benzyl)-6-azaspiro[2.5]octane-1-carboxylic acid]	> 100 nM
COC(=O)c1ccc(-c2nc(Nc3ccc(N4CCOCC4)cc3)c3c(=O)[nH]ncc3n2)cc1 [Example 29, methyl 4-(4-(4-morpholinophenylamino)-5-oxo-5,6-dihydropyrimido[4,5-d]pyridazin-2-yl)benzoate]	> 100 nM
O=C(O)C1CC12CCN(c1ccc(Nc3nc(N4CCOCC4)nc4cn[nH]c(=O)c34)cc1)CC2 (stereo not shown) [Example 42, 6-(4-((2-morpholino-5-oxo-5,6-dihydropyrimido[4,5-d]pyridazin-4-yl)amino)phenyl)-6-azaspiro[2.5]octane-1-carboxylic acid]	< 100 nM
O=c1[nH]ncc2nc(-c3ccccc3)nc(Nc3cnn(CCN4CCOCC4)c3)c12 [Example 58, 4-((1-(2-morpholinoethyl)-1H-pyrazol-4-yl)amino)-2-phenylpyrimido[4,5-d]pyridazin-5(6H)-one]	> 100 nM
COc1nc(Nc2ccc(CN3CCNCC3)cc2)c2c(=O)[nH]ncc2n1 [Example 61, 2-methoxy-4-((4-(piperazin-1-ylmethyl)phenyl)amino)pyrimido[4,5-d]pyridazin-5(6H)-one hydrochloride]	> 100 nM
O=c1[nH]ncc2nc(-c3ccccc3)nc(Nc3cnn(CCN4CCNCC4)c3)c12 [Example 63, 2-phenyl-4-((1-(2-(piperazin-1-yl)ethyl)-1H-pyrazol-4-yl)amino)pyrimido[4,5-d]pyridazin-5(6H)-one hydrochloride]	> 100 nM
CN1CCN(CCn2cc(Nc3nc(-c4ccccc4)nc4cn[nH]c(=O)c34)cn2)CC1 [Example 64, 4-((1-(2-(4-methylpiperazin-1-yl)ethyl)-1H-pyrazol-4-yl)amino)-2-phenylpyrimido[4,5-d]pyridazin-5(6H)-one]	> 100 nM
CCN1CCN(CCn2cc(Nc3nc(-c4ccccc4)nc4cn[nH]c(=O)c34)cn2)CC1 [Example 65, 4-((1-(2-(4-ethylpiperazin-1-yl)ethyl)-1H-pyrazol-4-yl)amino)-2-phenylpyrimido[4,5-d]pyridazin-5(6H)-one]	> 100 nM
COc1cc(Nc2nc(N3CCCCCC3)nc3cn[nH]c(=O)c23)cc(OC)c1OC [Example 67, 2-(azepan-1-yl)-4-((3,4,5-trimethoxyphenyl)amino)pyrimido[4,5-d]pyridazin-5(6H)-one]	> 100 nM
N#CCN1CCN(c2nc(Nc3ccc(N4CCC5(CC4)CC5C(=O)O)cc3)c3c(=O)[nH]ncc3n2)CC1 (stereo not shown) [Example 73, 6-(4-((2-(4-(cyanomethyl)piperazin-1-yl)-5-oxo-5,6-dihydropyrimido[4,5-d]pyridazin-4-yl)amino)phenyl)-6-azaspiro[2.5]octane-1-carboxylic acid]	< 100 nM

Results, then the compound that gave them:

IC50	SMILES
> 100 nM	N#CC1CCN(c2nc(Nc3ccc(N4CCC5(CC4)CC5C(=O)O)cc3)c3c(=O)[nH]ncc3n2)CC1 (stereo not shown) [Example 74, 6-(4-((2-(4-cyanopiperidin-1-yl)-5-oxo-5,6-dihydropyrimido[4,5-d]pyridazin-4-yl)amino)phenyl)-6-azaspiro[2.5]octane-1-carboxylic acid]
< 100 nM	N#CC1CCN(c2nc(Nc3ccc(N4CCC(CC(=O)O)CC4)cc3)c3c(=O)[nH]ncc3n2)CC1 [Example 75, 2-(1-(4-((2-(4-cyanopiperidin-1-yl)-5-oxo-5,6-dihydropyrimido[4,5-d]pyridazin-4-yl)amino)phenyl)piperidin-4-yl)acetic acid]
> 100 nM	N#CC1CCN(c2nc(Nc3ccc(CN4CCC(C(=O)O)CC4)cc3)c3c(=O)[nH]ncc3n2)CC1 [Example 76, 1-(4-((2-(4-cyanopiperidin-1-yl)-5-oxo-5,6-dihydropyrimido[4,5-d]pyrimido[4,5-d]pyridazin-4-yl)amino)benzyl)piperidine-4-carboxylic acid]
< 100 nM	N#CCC1CCN(c2nc(Nc3ccc(CN4CCC(C(=O)O)CC4)cc3)c3c(=O)[nH]ncc3n2)CC1 [Example 78, 1-(4-((2-(4-(cyanomethyl)piperidin-1-yl)-5-oxo-5,6-dihydropyrimido[4,5-d]pyridazin-4-yl)amino)benzyl)piperidine-4-carboxylic acid]
> 100 nM	N#CCC1CCN(c2ccc(Nc3nc(-c4ccccc4)nc4cn[nH]c(=O)c34)cc2)CC1 [Example 82, 2-(1-(4-((5-oxo-2-phenyl-5,6-dihydropyrimido[4,5-d]pyridazin-4-yl)amino)phenyl)piperidin-4-yl)acetonitrile]
< 100 nM	O=C(O)CC1CCN(c2ccc(Nc3nc(C4CCCCCC4)nc4cn[nH]c(=O)c34)cc2)CC1 [Example 90, 2-(1-(4-((2-cycloheptyl-5-oxo-5,6-dihydropyrimido[4,5-d]pyridazin-4-yl)amino)phenyl)piperidin-4-yl)acetic acid]
< 100 nM	O=c1[nH]ncc2nc(-c3ccccc3)nc(Nc3ccc(OCCN4CCOCC4)cc3)c12 [Example 94, 4-((4-(2-morpholinoethoxy)phenyl)amino)-2-phenylpyrimido[4,5-d]pyridazin-5(6H)-one]
> 100 nM	N#CCC1CCN(c2ccc(Nc3nc(N4CCCCCC4)nc4cn[nH]c(=O)c34)cn2)CC1 [Example 97, 2-(1-(5-((2-(azepan-1-yl)-5-oxo-5,6-dihydropyrimido[4,5-d]pyridazin-4-yl)amino)pyridin-2-yl)piperidin-4-yl) acetonitrile]
< 50 nM	CC(C)(C#N)N1CCN(c2ccc(Nc3nc(N4CCCCCC4)nc4cn[nH]c(=O)c34)cc2)CC1 [Example 111, 2-(4-(4-((2-(azepan-1-yl)-5-oxo-5,6-dihydropyrimido[4,5-d]pyridazin-4-yl)amino)phenyl)piperazin-1-yl)-2-methylpropanenitrile]
> 100 nM	CC(C)(C#N)C1CCN(c2ccc(Nc3nc(-c4ccccc4)nc4cn[nH]c(=O)c34)cc2)CC1 [Example 119, 2-methyl-2-(1-(4-((5-oxo-2-phenyl-5,6-dihydropyrimido[4,5-d]pyridazin-4-yl)amino)phenyl)piperidin-4-yl) propanenitrile]
> 100 nM	O=c1[nH]ncc2nc(-c3ccccc3)nc(Nc3ccc(OC[C@@H]4CO[C@@H](CO)CO4)cc3)c12 [Example 122, 4-((4-(((2S,5S)-5-(hydroxymethyl)-1,4-dioxan-2-yl)methoxy)phenyl)amino)-2-phenylpyrimido[4,5-d]pyridazin-5(6H)-one]
> 100 nM	O=C(O)C1CC12CCN(c1ccc(Nc3nc(-c4ccccc4)nc4cn[nH]c(=O)c34)cn1)CC2 (stereo not shown) [Example 137, 6-(5-((5-oxo-2-phenyl-5,6-dihydropyrimido[4,5-d]pyridazin-4-yl)amino)pyridin-2-yl)-6-azaspiro[2.5]octane-1-carboxylic acid]
